We go through 4 compounds from patent US20140377219A1, “HIV INHIBITORS” (New york Blood Center, Inc., priority 2011, published 2014).

Read-outs that look alike come from different tables or passages of the source.

One data set concerns HIV-1 BaL. Description: Neutralization assay in PBMC (p24 ELISA). Particulars: read-out: IC50 (μM) ± S.D., inhibitory activity on infection, BaL, subtype B, R5, laboratory strain.
The next data set has as its system PBMC. Description: Cytotoxicity in PBMC (XTT). The class given is cell-based. How it is done:
Cytotoxicity of small molecules in MT-2 cells and PBMC was measured by the XTT ((sodium 3′-(1-(phenylamino)-carbonyl)-3,4-tetrazolium-bis(4-methoxy-6-nitro)benzene-sulfonic acid hydrate)) method. Briefly, for MT-2 cells, 100 μl of a small molecule at graded concentrations was added to an equal volume of cells (10^5 cells/ml) in 96-well plates followed by incubation at 37° C. for four days, which ran parallel with the neutralization assay in MT-2 (except medium was added instead of virus). In the case of PBMC, 5×10^5 cells/ml was used and the cytotoxicity was measured after seven days. […] The percentage cytotoxicity and the CC50 values were calculated as described above.

In data set [1] the test system is Panel C env CAP-45.2.00.G3, SVPC16. It is filed as cell-based. Conditions: TZM-bl, read-out: IC50 (μM) ± S.D., antiviral activity against HIV-1 envelope pseudoviruses.
For data set [2], the system named is Panel C env Du422, clone 1 (SVPC5). It is filed as cell-based. Conditions: TZM-bl, read-out: IC50 (μM) ± S.D., antiviral activity against HIV-1 envelope pseudoviruses.
Data set [3] relates to Panel C env ZM-249M.PL1, SVPC10. It is filed as cell-based. Particulars: TZM-bl, read-out: IC50 (μM) ± S.D., antiviral activity against HIV-1 envelope pseudoviruses.
The test system of data set [4] is Panel C env ZM-233M.PB6, SVPC9. The class given is cell-based. Conditions: TZM-bl, read-out: IC50 (μM) ± S.D., antiviral activity against HIV-1 envelope pseudoviruses.
For data set [5], the system named is Panel C env Du156, clone 12 (SVPC3). It is filed as cell-based. Particulars: TZM-bl, read-out: IC50 (μM) ± S.D., antiviral activity against HIV-1 envelope pseudoviruses.
A further data set deals with HIV-1 SF162. The data set is described as follows: Neutralization assay in PBMC (p24 ELISA). Conditions: read-out: IC50 (μM) ± S.D., inhibitory activity on infection; SF162, subtype B, PBMC, R5, laboratory strain.
Data set [6] deals with Panel C env CAP-210.2.00.E8, SVPC17. The class given is cell-based. Particulars: TZM-bl, read-out: IC50 (μM) ± S.D., antiviral activity against HIV-1 envelope pseudoviruses.
The subject of data set [7] is pNL4-3 gp41 (36G) V38E, N42S (fusion resistant isolate). The class given is cell-based, HIV-1. Particulars: subtype B, MT-2, X4, fusion resistant isolate, read-out: IC50 (μM) ± S.D., inhibitory activity on infection.
The subject of data set [8] is primary HIV-1 isolate 93BR029 (clade F, R5). The data set is described as follows: Neutralization assay in PBMC (p24 ELISA). Particulars: read-out: IC50 (μM) ± S.D., inhibitory activity on infection; 93BR029, subtype F, PBMC, R5, primary isolate.
Description: (§2) PBMCs were isolated from the blood of healthy donors at the New York Blood Center by standard density-gradient centrifugation using Histopaque-1077 (Sigma-Aldrich). The cells were cultured at 37° C. for 2 h. Non-adherent cells were collected and resuspended at 5×10^6 cells/ml in RPMI-1640 medium containing 10% (v/v) fetal bovine serum, 5 μg/ml of phytohemagglutinin, and 100 U/ml of IL-2 (Sigma-Aldrich), followed by incubation at 37° C. for three days.
Another data set relates to HIV-1 MN. Description: Multi-cycle neutralization assay in MT-2 cells. Conditions: read-out: IC50 (μM) ± S.D., inhibitory activity on infection; MN, subtype B, MT-2, X4, laboratory strain.
The next data set has as its target gp120-CD4 interaction (Human immunodeficiency virus type 1 group M subtype B, UniProt P03375). It is filed as binding. Particulars: FIG. 7.
The next data set concerns HIV-1 89.6. The data set is described as follows: Neutralization assay in PBMC (p24 ELISA). Conditions: read-out: IC50 (μM) ± S.D., inhibitory activity on infection; 89.6, subtype B, PBMC, R5X4, laboratory strain.
The target of another data set is gp120 (Human immunodeficiency virus type 1 group M subtype B, UniProt P03375). The data set is described as follows: biochemical. It is filed as binding, HIV-1. Conditions: SPR, ligand gp120.
Data set [9] relates to CD4-dependent virus (ADA). The class given is cell-based. Particulars: ADA in Cf2Th-CD4+-CCR5+ target cells, FIG. 5; read-out: IC50, inhibition of the CD4-dependent virus.
The target of the next data set is CD4 (Homo sapiens, UniProt P01730). Description: Surface plasmon resonance (SPR), ligand CD4. The class given is binding. Particulars: SPR.
For the next data set, the target named is T1, HIV-1MN gp120 and sCD4 (Human immunodeficiency virus type 1 group M subtype B, UniProt P05877).
T1 construct: recombinant gp120 from HIV-1IIIB and HIV-1MN
Description: biochemical. The class given is binding. Particulars: captured ELISA, sCD4 0.25 μg/ml; read-out: IC50 (μM ± SD), interaction HIV-1MN gp120 and sCD4. How it is done:
(§1) The compounds were incubated at graded concentrations with sCD4 (0.25 μg/ml) in the wells of polystyrene plates containing recombinant gp120, which was captured by coating the plates with a sheep anti-gp120 antibody D7324.

Another data set has as its target T2, HIV-1IIIB gp120 and sCD4 (Human immunodeficiency virus type 1 group M subtype B, UniProt P03375).
T2 construct: recombinant gp120 from HIV-1IIIB and HIV-1MN
The data set is described as follows: biochemical. It is filed as binding. Particulars: captured ELISA, sCD4 0.25 μg/ml; read-out: IC50 (μM ± SD), interaction HIV-1IIIB gp120 and sCD4. How it is done:
as §1

The mark [10] stands for this setting: PBMC, XTT, seven days, read-out: PBMC CC50.

Description for HIV-1 89.6: The inhibitory activity of small molecules on infection by primary HIV-1 isolates was determined. PBMCs were isolated from the blood of healthy donors at the New York Blood Center by standard density-gradient centrifugation using Histopaque-1077 (Sigma-Aldrich). The cells were cultured at 37° C. for 2 h. Non-adherent cells were collected and resuspended at 5×10^6 cells/ml in RPMI-1640 medium containing 10% (v/v) fetal bovine serum, 5 μg/ml of phytohemagglutinin, and 100 U/ml of IL-2 (Sigma-Aldrich), followed by incubation at 37° C. for three days.
Description for HIV-1 BaL: as §2
Description for HIV-1 MN: In brief, 1×10^4 MT-2 cells were infected with HIV-1 at 100 TCID50 (50% tissue culture infective dose) (0.01MOI) in 200 μl medium in the presence or absence of small molecules at graded concentrations and incubated overnight. The culture supernatants were then removed and replaced with fresh media. On the fourth day post-infection, 100 μl of culture supernatants were collected from each well, mixed with equal volume of 5% Triton X-100 and tested for p24 antigen by sandwich-ELISA. The percent inhibition of p24 production and IC50 values were calculated by the GraphPad Prism software (GraphPad Software Inc.).
Description for HIV-1 SF162: as §2

Turning to `Cc1nc(C(NC(=O)C(=O)Nc2ccc(Cl)cc2)C2CCCCN2)sc1CO.Cl` (stereo not shown) [Compound 6, N^1-(4-chlorophenyl)-N^2-((5-(hydroxymethyl)-4-methylthiazol-2-yl)(piperidin-2-yl)methyl)oxalamide.HCl], the IC50 in the data set with HIV-1 BaL amounted to 35.8 ± 1.2 µM; in [1], 4.7 ± 0.95 µM; in data set [2] it was 15.9 ± 0.4 µM; in data set [3], 1.5 ± 0.6 µM; in data set [4], 5.6 ± 1.3 µM; in data set [5] it was 4.6 ± 0.13 µM. In addition, the IC50 worked out at 12.7 ± 0.7 µM in the data set on HIV-1 SF162; 15.1 ± 1.5 µM in data set [6]; 5.8 ± 0.3 µM in data set [7]; 8 ± 1.3 µM in data set [8]; 4 ± 0.9 µM with HIV-1 MN. The compound also had a half-maximal cytotoxic concentration (CC50) in the data set on PBMC of more than 160 µM. Moreover, at gp120-CD4 interaction, the “inhibition of the gp120-CD4 interaction” value is listed as “inhibit gp120-CD4 interaction in a dose dependent manner”.
In the case of `Cc1ccc(NC(=O)C(=O)NC(c2nc(C)c(CO)s2)C2CCCCN2)cc1F.Cl` (stereo not shown) [Compound 28, N^1-(3-fluoro-4-methylphenyl)-N^2-((5-(hydroxymethyl)-4-methylthiazol-2-yl)(piperidin-2-yl)methyl)oxalamide.HCl], the IC50 in the data set on HIV-1 BaL is 23.7 ± 0.3 µM; with HIV-1 89.6 it was 3.9 ± 0.5 µM; in data set [2] it was more than 42 µM; in data set [3], more than 42 µM; with HIV-1 SF162, 8.1 ± 1.2 µM; in data set [6], more than 42 µM. The results for the IC50 (in [7]; in [8]; in the data set with HIV-1 MN) were 4.6 ± 0.4 µM, 5.2 ± 1.1 µM and 24.6 ± 4.6 µM, respectively. For the same compound, in the data set with PBMC (setting [10]), the CC50 was approximately 106 µM.
In the case of `Cc1nc(C(NC(=O)C(=O)Nc2ccc(Cl)c(F)c2)C2CCCCN2)sc1CCO.Cl` (stereo not shown) [Compound 39, N^1-(4-chloro-3-fluorophenyl)-N^2-((5-(2-hydroxyethyl)-4-methylthiazol-2-yl)(piperidin-2-yl)methyl)oxalamide.HCl], the IC50 in the data set on HIV-1 BaL amounted to 24.9 ± 4.5 µM; in the data set with HIV-1 89.6, 6.2 ± 0.3 µM; in data set [1], 3.4 ± 0.4 µM; in data set [2], 2.5 ± 0.1 µM; in data set [3] it was 2.5 ± 0.2 µM; in [4], 2.5 ± 0.5 µM. Besides, the IC50 in [5] was 1.7 ± 0.2 µM; in the data set on HIV-1 SF162 it was 11.9 ± 1 µM; in data set [6], 3.2 ± 0.6 µM; in data set [7], 3.9 ± 0.3 µM; in data set [8] it was 8.3 ± 0.7 µM; in the data set on HIV-1 MN it was 16.7 ± 1.5 µM. The “% toxicity at that dose (number in parenthesis), PBMC” value in the data set on PBMC is reported as “(20%)”. Besides, the CC50 with PBMC is more than 81 µM.
As to `CC1(C)CC(NC(=O)C(=O)Nc2ccc(Cl)cc2)CC(C)(C)N1` [NBD-556, reference compound], the IC50 in the data set on HIV-1 BaL is not below 118 µM; with HIV-1 89.6 it was 4.8 ± 1 µM; in data set [1], 7.9 ± 0.87 µM; in data set [2] it was 11.8 ± 2.9 µM; in data set [3] it was 6.1 ± 1.7 µM; in data set [4] it was 4.9 ± 1.13 µM. The IC50 in the data set with HIV-1 SF162 was found to be 48.9 ± 7.3 µM; in [6], 13.3 ± 1.3 µM; in data set [7], 11 ± 0.9 µM; in data set [8], 40 ± 10.6 µM; in data set [9], 22.6 µM; in the data set on HIV-1 MN, 15.9 ± 1.6 µM. The IC50 was found to be 5.66 ± 0.8 µM at HIV-1MN gp120 and sCD4; 2.11 µM at HIV-1IIIB gp120 and sCD4. In addition, the CC50 with PBMC (setting [10]) is 961 µM. The “Rmax (RU)” value on gp120 is 6.99 RU. Moreover, the “binding to CD4” value on CD4 was “not to CD4”. The “inhibition of the gp120-CD4 interaction” value against gp120-CD4 interaction is “in a dose dependent manner”.
